From ChEMBL document CHEMBL4346735, “Discovery and pharmacological evaluation of indole derivatives as potent and selective RORγt inverse agonist for multiple autoimmune conditions” (Bioorg Med Chem Lett, 2019)

Tests used:
[1] = target: T1, Nuclear receptor ROR-alpha (Homo sapiens, UniProt P35398); test: Inhibition of GAL4-DBD fused RORalpha LBD (unknown origin) expressed in HEK293T cells; assay type: cell-based
T1 sequence (P35398 whole entry): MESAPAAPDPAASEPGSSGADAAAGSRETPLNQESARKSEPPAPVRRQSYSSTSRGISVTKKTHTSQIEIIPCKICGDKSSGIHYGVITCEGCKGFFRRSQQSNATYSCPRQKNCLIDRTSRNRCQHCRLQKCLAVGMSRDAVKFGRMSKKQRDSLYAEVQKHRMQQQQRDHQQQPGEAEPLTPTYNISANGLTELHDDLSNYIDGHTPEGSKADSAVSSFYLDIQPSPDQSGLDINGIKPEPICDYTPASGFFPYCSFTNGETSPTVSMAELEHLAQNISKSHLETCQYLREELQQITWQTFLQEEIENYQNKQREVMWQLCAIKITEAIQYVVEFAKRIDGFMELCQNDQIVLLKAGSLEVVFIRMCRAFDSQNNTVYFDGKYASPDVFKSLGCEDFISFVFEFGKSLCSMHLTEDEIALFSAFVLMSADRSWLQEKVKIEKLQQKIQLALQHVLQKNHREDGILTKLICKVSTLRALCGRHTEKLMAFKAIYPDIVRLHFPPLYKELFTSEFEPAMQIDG

[2] = Mutagenicity in Salmonella typhimurium by mini Ames test; assay type: toxicity; details: salmonella enterica subsp. enterica serovar typhimurium
[3] = Metabolic stability in rat hepatocytes assessed as parent compound remaining after 60 mins; assay type: ADME, cell-based, Hepatocyte; details: read-out: Stability
Mus musculus [4] = test: (§1) Immunosuppressive activity in MOG (35 to 55 residues)/pertussis toxin-induced experimental allergic encephalomyelitis C57BL/6J mouse model assessed as reduction in disease severity score at 30 mg/kg, po bid measured at day 21 relative to dexamethasone; assay type: functional; details: 504 h
[5] = Transrepression of RORgammat in cytostim stimulated human whole blood assessed as suppression of IL-17 secretion incubated for 24 hrs; assay type: tissue-based
[6] = Metabolic stability in simulated gastric fluid assessed as compound remaining after 30 mins; assay type: ADME; details: read-out: Stability
[7] = Metabolic stability in simulated intestinal fluid assessed as compound remaining after 30 mins; assay type: ADME; details: read-out: Stability
[8] = Metabolic stability in dog hepatocytes assessed as parent compound remaining after 60 mins; assay type: ADME, cell-based, Canis lupus familiaris, Hepatocyte; details: read-out: Stability
Mus musculus [9] = test: as §1, with “IL-22 gene expression in spinal cord” for “disease severity score”, “19 post MOG immunization/pertusis immunization” for “21”, “control” for “dexamethasone”; assay type: functional; details: 456 h
Mus musculus [10] = test: as §1, with “CCR6 gene expression in spinal cord” for “disease severity score”, “19 post MOG immunization/pertusis immunization” for “21”, “control” for “dexamethasone”; assay type: functional; details: 456 h
[11] = Metabolic stability in simulated intestinal fluid assessed as compound remaining after 3 hrs; assay type: ADME; details: read-out: Stability

O=C(O)c1ccc(-n2cc(C(=O)c3c(Cl)cccc3Cl)c3cccc(F)c32)cc1
IC50 [1]: > 10 µM | Activity [2]: Non-Toxic | remaining at 1 h [3]: 57% | inhibition in vivo at 30 mg/kg (Mus musculus [4]): 26% | IC50 [5]: 490 nM | remaining at 0.5 h [6]: 90% | remaining at 0.5 h [7]: 100% | remaining at 1 h [8]: 51% | inhibition in vivo at 30 mg/kg (Mus musculus [9]): 36% | inhibition in vivo at 30 mg/kg (Mus musculus [10]): 60% | remaining at 3 h [11]: 100%
